Usually IC50 stands for the concentration needed to halve the response being measured. High values mean a need for much substance, low ones inhibition by little substance.

The assay concerns the target T1, human TLR8 (Homo sapiens, UniProt Q9NR97).
T1 sequence (Q9NR97 27-1041): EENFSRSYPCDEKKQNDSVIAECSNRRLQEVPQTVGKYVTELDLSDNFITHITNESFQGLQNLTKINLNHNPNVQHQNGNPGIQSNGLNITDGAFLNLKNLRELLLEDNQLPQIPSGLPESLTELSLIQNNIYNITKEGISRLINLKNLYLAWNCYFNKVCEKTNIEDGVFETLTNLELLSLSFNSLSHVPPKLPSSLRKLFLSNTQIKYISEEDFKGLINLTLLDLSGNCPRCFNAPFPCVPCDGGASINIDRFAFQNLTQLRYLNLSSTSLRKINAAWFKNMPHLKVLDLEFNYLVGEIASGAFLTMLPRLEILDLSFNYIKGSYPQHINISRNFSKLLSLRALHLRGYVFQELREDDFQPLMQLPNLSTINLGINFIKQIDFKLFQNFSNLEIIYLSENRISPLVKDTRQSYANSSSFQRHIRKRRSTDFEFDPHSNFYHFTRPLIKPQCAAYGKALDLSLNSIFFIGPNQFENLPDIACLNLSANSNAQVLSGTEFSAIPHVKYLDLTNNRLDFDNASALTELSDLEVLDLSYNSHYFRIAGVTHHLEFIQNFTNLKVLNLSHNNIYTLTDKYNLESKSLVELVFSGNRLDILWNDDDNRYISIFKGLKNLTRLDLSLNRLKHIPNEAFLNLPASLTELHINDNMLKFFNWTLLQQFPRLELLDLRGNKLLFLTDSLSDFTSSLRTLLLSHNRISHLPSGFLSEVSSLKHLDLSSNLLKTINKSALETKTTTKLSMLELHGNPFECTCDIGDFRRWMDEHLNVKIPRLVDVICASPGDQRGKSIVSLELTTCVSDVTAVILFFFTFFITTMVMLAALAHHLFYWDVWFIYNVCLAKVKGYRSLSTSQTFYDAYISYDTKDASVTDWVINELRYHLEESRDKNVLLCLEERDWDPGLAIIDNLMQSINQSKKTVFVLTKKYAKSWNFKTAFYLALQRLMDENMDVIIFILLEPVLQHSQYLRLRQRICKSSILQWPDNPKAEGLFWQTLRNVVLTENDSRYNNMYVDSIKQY
The experiment in a line: HEK293-Blue-hTLR-8 cells assay. To be noted: HEK293-Blue-hTLR8 cells, SEAP reporter, R848 stimulation, 20 hrs. The format is cell-based. The text has this: HEK293-Blue-hTLR-8 Cells Assay:
A stable HEK293-Blue-hTLR-8 cell line was purchased from InvivoGen (Cat. #: hkb-htlr8, San Diego, Calif., USA). These cells were originally designed for studying the stimulation of human TLR8 by monitoring the activation of NF-κB. A SEAP (secreted embryonic alkaline phosphatase) reporter gene was placed under the control of the IFN-β minimal promoter fused to five NF-κB and AP-1-binding sites. The SEAP was induced by activating NF-κB and AP-1 via stimulating HEK-Blue hTLR8 cells with TLR8 ligands. Therefore the reporter expression was declined by TLR8 antagonist under the stimulation of a ligand, such as R848, for incubation of 20 hrs. The cell culture supernatant SEAP reporter activity was determined using QUANTI-Blue™ kit (Cat. #: rep-qb1, Invivogen, San Diego, Ca, USA) at a wavelength of 640 nm, a detection medium that turns purple or blue in the presence of alkaline phosphatase.
HEK293-Blue-hTLR8 cells were incubated at a density of 250,000-450,000 cells/mL in a volume of 170 μL in a 96-well plate in Dulbecco's Modified Eagle's medium (DMEM) containing 4.5 g/L glucose, 50 U/mL penicillin, […], […], 2 mM L-glutamine, 10% (v/v) heat-inactivated fetal bovine serum with addition of 20 μL test compound in a serial dilution in the presence of final DMSO at 1% and 10 sL of 60 uM R848 in above DMEM, perform incubation under 37° C. in a CO2 incubator for 20 hrs. Then 20 μL of the supernatant from each well was incubated with 180 sL Quanti-blue substrate solution at 37° C. for 2 hrs and the absorbance was read at 620˜655 nm using a spectrophotometer. The signalling pathway that TLR8 activation leads to downstream NF-κB activation has been widely accepted, and therefore similar reporter assay was modified for evaluating TLR8 antagonist.
`N#Cc1ccc(N2CC(C(=O)NC[C@H]3CNCCO3)C3(CC3)C2)c2nccnc12` (single isomer, unassigned) [Example 70A] showed an IC50 of 34 nM. `C[C@@H]1CN(c2ccc(C#N)c3ncccc23)C[C@H]1C(=O)NC1CCCNCC1` (single isomer, unassigned) [Example 52B, Trans-N-(azepan-4-yl)-1-(8-cyano-5-quinolyl)-4-methyl-pyrrolidine-3-carboxamide] returned an IC50 of 274 nM. `C[C@@H]1CN(c2ccc(C(F)(F)F)c3nccnc23)C[C@H]1C(=O)NC1CCN(C)CC1` [Example 25, (3S,4S)-4-Methyl-N-(1-methyl-4-piperidyl)-1-[8-(trifluoromethyl)quinoxalin-5-yl]pyrrolidine-3-carboxamide] displayed an IC50 of 152 nM. The compound `O=C(NC1CC2CNCC2C1)C1CN(c2ccc(C(F)(F)F)c3nccnc23)CC12CC2` (stereo not shown) [Example 21, N-(1,2,3,3a,4,5,6,6a-octahydrocyclopenta[c]pyrrol-5-yl)-5-[8-(trifluoromethyl)quinoxalin-5-yl]-5-azaspiro[2.4]heptane-7-carboxamide] yielded an IC50 of 77 nM. For the compound `O=C(NC1CC2CNCC(C2)C1)C1CN(c2ccc(C(F)(F)F)c3nccnc23)CC12CC2` (stereo not shown) [Example 15, N-(3-azabicyclo[3.3.1]nonan-7-yl)-5-[8-(trifluoromethyl)quinoxalin-5-yl]-5-azaspiro[2.4]heptane-7-carboxamide], the IC50 came out at 156 nM. `N#Cc1ccc(N2CC(C(=O)NC[C@H]3CNCCO3)C3(CC3)C2)c2nccnc12` (single isomer, unassigned) [Example 70B] showed an IC50 of 168 nM. Compound `C[C@@H]1CN(c2ccc(C#N)c3ncccc23)C[C@H]1C(=O)NC1CCN(C)CC1` (relative stereo) [Example 28] came in with an IC50 of 52 nM. Against the preceding compound, the IC50 is about 3.2-fold lower. With `C[C@@H]1CN(c2ccc(C#N)c3ncccc23)C[C@H]1C(=O)N[C@H]1CNC[C@H]1F` [Example 56, Trans-1-(8-cyano-5-quinolyl)-N-[(3S,4R)-4-fluoropyrrolidin-3-yl]-4-methyl-pyrrolidine-3-carboxamide] the figure was 373 nM; with `N#Cc1ccc(N2CC(C(=O)NC[C@@H]3CNCCO3)C3(CC3)C2)c2nccnc12` (single isomer, unassigned) [Example 71A], 75 nM.

Compound `Cc1ccc(N2C[C@H](C(=O)NC3CCN(C)CC3)[C@@H](C)C2)c2nccnc12` [Example 33, (3R,4R)-4-Methyl-N-(1-methyl-4-piperidyl)-1-(8-methylquinoxalin-5-yl)pyrrolidine-3-carboxamide] registered an IC50 of 75 nM. For the compound `O=C(NC1CC2CCC(C1)N2)C1CN(c2ccc(C(F)(F)F)c3nccnc23)CC12CC2` (stereo not shown) [Example 23, N-(8-azabicyclo[3.2.1]octan-3-yl)-5-[8-(trifluoromethyl)quinoxalin-5-yl]-5-azaspiro[2.4]heptane-7-carboxamide], 243 nM corresponded to half-maximal inhibition (IC50). Consider `NC1CC(CNC(=O)C2CN(c3ccc(C(F)(F)F)c4nccnc34)CC23CC3)C1` (stereo not shown) [Example 31, N-[(3-aminocyclobutyl)methyl]-5-[8-(trifluoromethyl)quinoxalin-5-yl]-5-azaspiro[2.4]heptane-7-carboxamide], for which 167 nM corresponded to half-maximal inhibition (IC50). With `CN1CCC(NC(=O)C2CN(c3ccc(C#N)c4nccnc34)CC23CC3)CC1` (single isomer, unassigned) [Example 7B, 5-(8-Cyanoquinoxalin-5-yl)-N-(1-methyl-4-piperidyl)-5-azaspiro[2.4]heptane-7-carboxamide] the figure was 26 nM. The compound `N#Cc1ccc(N2CC(C(=O)NC3CCCNCC3)C(C(F)(F)F)C2)c2cccnc12` (single isomer, unassigned) [Example 30B, N-(azepan-4-yl)-1-(8-cyano-5-quinolyl)-4-(trifluoromethyl)pyrrolidine-3-carboxamide] yielded an IC50 of 173 nM. `CN1CCC(NC(=O)C2CN(c3ccc(C#N)c4nccnc34)CC23CC3)CC1` (single isomer, unassigned) [Example 7A, 5-(8-Cyanoquinoxalin-5-yl)-N-(1-methyl-4-piperidyl)-5-azaspiro[2.4]heptane-7-carboxamide] had an IC50 of 7 nM.

`CN1CCC(NC(=O)[C@@H]2CN(c3ccc(C#N)c4ncccc34)C[C@H]2C(F)F)CC1` (relative stereo) [Example 40, Trans-1-(8-cyano-5-quinolyl)-4-(difluoromethyl)-N-(1-methyl-4-piperidyl)pyrrolidine-3-carboxamide] showed an IC50 of 134 nM.

Regarding `CN1CCC(NC(=O)[C@H]2CN(c3ccc(C#N)c4nccnc34)C[C@@H]2C(F)(F)F)CC1` [Example 1, (3R,4R)-1-(8-cyanoquinoxalin-5-yl)-N-(1-methyl-4-piperidyl)-4-(trifluoromethyl) pyrrolidine-3-carboxamide], the IC50 was determined as 13 nM.

Take `O=C(NC1C2CCC1CNC2)C1CN(c2ccc(C(F)(F)F)c3nccnc23)CC12CC2` (stereo not shown) [Example 12, N-(3-azabicyclo[3.2.1]octan-8-yl)-5-[8-(trifluoromethyl)quinoxalin-5-yl]-5-azaspiro[2.4]heptane-7-carboxamide]: the 50% inhibitory concentration (IC50) is 227 nM.

`CN1CCC(NC(=O)[C@H]2CN(c3ccc(C(F)(F)F)c4nccnc34)C[C@@H]2C(F)(F)F)CC1` [Example 2, (3R,4R)—N-(1-methyl-4-piperidyl)-4-(trifluoromethyl)-1-[8-(trifluoromethyl)quinoxalin-5-yl]pyrrolidine-3-carboxamide] displayed an IC50 of 18 nM. Compared with the last compound, the IC50 is about 13-fold lower.

Regarding `O=C(NC1CC2CCCC(C1)N2)C1CN(c2ccc(C(F)(F)F)c3nccnc23)CC12CC2` (stereo not shown) [Example 10, N-(9-azabicyclo[3.3.1]nonan-3-yl)-5-[8-(trifluoromethyl)quinoxalin-5-yl]-5-azaspiro[2.4]heptane-7-carboxamide], the IC50 was 245 nM. For the compound `N[C@H]1CC[C@@H](NC(=O)C2CN(c3ccc(C(F)(F)F)c4nccnc34)CC23CC3)CC1` (stereo partly shown) [Example 39, N-(4-Aminocyclohexyl)-5-[8-(trifluoromethyl)quinoxalin-5-yl]-5-azaspiro[2.4]heptane-7-carboxamide], the IC50 is 447 nM. `N#Cc1ccc(N2CC(C(=O)NCC3CNCCO3)C3(CC3)C2)c2nccnc12` (stereo not shown) [Example 13, 5-(8-Cyanoquinoxalin-5-yl)-N-(morpholin-2-ylmethyl)-5-azaspiro[2.4]heptane-7-carboxamide] registered an IC50 of 48 nM.

Turning to `N[C@H]1CC[C@H](NC(=O)C2CN(c3ccc(C(F)(F)F)c4nccnc34)CC23CC3)CC1` (stereo partly shown) [Example 24, N-(4-aminocyclohexyl)-5-[8-(trifluoromethyl)quinoxalin-5-yl]-5-azaspiro[2.4]heptane-7-carboxamide], the IC50 is 175 nM. Compared with the last compound, the IC50 is about 3.6-fold higher. To `CN1CCC(NC(=O)C2CN(c3ccc(C#N)c4ncccc34)CC23CC3)CC1` (single isomer, unassigned) [Example 41A, 5-(8-Cyano-5-quinolyl)-N-(1-methyl-4-piperidyl)-5-azaspiro[2.4]heptane-7-carboxamide] belongs 191 nM; to `CN1CCC(NC(=O)C2CN(c3ccc(C(F)(F)F)c4nccnc34)CC23CC3)CC1` (stereo not shown) [Example 11, N-(1-methyl-4-piperidyl)-5-[8-(trifluoromethyl)quinoxalin-5-yl]-5-azaspiro[2.4]heptane-7-carboxamide], 30 nM.
